Reference: PMC12647143 (Nature Communications, 2025)

Tests used:
MRSA ATCC 33591 [1] = assay: Antimicrobial-resistance test; format: cell-based, methicillin-resistant Staphylococcus aureus; conditions: for increase in MIC after continuous 14 passages exposure: MRSA ATCC 33591, 1/2 × MIC
[2] = test system: K. pneumoniae ATCC 700603; assay: Antimicrobial-resistance test; format: cell-based, Klebsiella pneumoniae; conditions: 1/2 × MIC
MRSA ATCC 33591 [3] = assay: ROS accumulation assay; format: cell-based, methicillin-resistant Staphylococcus aureus; conditions: 2 × MIC and 4 × MIC
MRSA ATCC 33591 [4] = assay: Bacteria-induced pneumonia model; format: in vivo, Kunming mice; conditions: MRSA ATCC 33591 pneumonia model
[5] = RT-qPCR of Cystatin C, Lipocalin 2, Havcr1 mRNA in kidney; format: in vivo, Kunming mice; conditions: AMP 1003 20 or 30 mg/kg; polymyxin B 20 mg/kg
[6] = test system: K. pneumoniae ATCC 700603; assay: Bacteria-induced pneumonia model; format: in vivo, Kunming mice
[7] = ELISA of NGAL, Cystatin C and Kim-1 in serum and urine; conditions: 20 mg/kg or 30 mg/kg; 7 days
[8] = test system: K. pneumoniae ATCC 700603; assay: ROS accumulation assay; format: cell-based, Klebsiella pneumoniae; conditions: 1 ×, 2 ×, 4 × MIC
[9] = In vivo toxicity assay, single intraperitoneal injection
[10] = Renal tubular injury score; conditions: AMP 1003 20 or 30 mg/kg; polymyxin B 20 mg/kg; score 0-5
[11] = test system: multidrug-resistant bacteria; conditions: cited from earlier work
mammalian cells = conditions: cited from earlier work

CNC(C)C1CCC(N)C(OC2C(N)CC(N)C(OC3OCC(C)(O)C(NC)C3O)C2O)O1 (centres unmarked) [Gentamicin]
increase in MIC after continuous 14 passages exposure (MRSA ATCC 33591 [1]): up to 128 fold | increase in MIC (cross-resistance) (MRSA ATCC 33591 [1]; final generation of MRSA ATCC 33591 treated with the peptide for 14 passages): 128 fold | increase in MIC after continuous 14 passages exposure [2]: up to 512 fold

C[C@@H](O)[C@H]1C(=O)N2C(C(=O)O)=C(SCCN=CN)C[C@H]12 [Imipenem]
increase in MIC after continuous 14 passages exposure (MRSA ATCC 33591 [1]): up to 8 fold | increase in MIC after continuous 14 passages exposure [2]: up to 16 fold

CN(C)c1ccc(O)c2c1C[C@H]1C[C@H]3[C@H](N(C)C)C(O)=C(C(N)=O)C(=O)[C@@]3(O)C(O)=C1C2=O [Minocycline]
increase in MIC after continuous 14 passages exposure [2]: up to 8 fold

CN[C@H](CC(C)C)C(=O)N[C@H]1C(=O)N[C@@H](CC(N)=O)C(=O)N[C@H]2C(=O)N[C@H]3C(=O)N[C@H](C(=O)N[C@H](C(=O)O)c4cc(O)cc(O)c4-c4cc3ccc4O)[C@H](O)c3ccc(c(Cl)c3)Oc3cc2cc(c3O[C@@H]2O[C@H](CO)[C@@H](O)[C@H](O)[C@H]2O[C@H]2C[C@](C)(N)[C@H](O)[C@H](C)O2)Oc2ccc(cc2Cl)[C@H]1O [Vancomycin]
ROS accumulation (MRSA ATCC 33591 [3]): no such effect | lung histology (H&E) (MRSA ATCC 33591 [4]): substantially alleviated these pathological changes

Polymyxin B
Cystatin C, Lipocalin 2 and Havcr1 mRNA in the kidneys [5]: notable increase in Cystatin C and Lipocalin 2 mRNA levels | lung histology (H&E) ([6]; K. pneumoniae ATCC 700603 pneumonia model): substantially alleviated these pathological changes | decrease of bacterial load in the lungs ([6]; K. pneumoniae ATCC 700603 pneumonia, 5 mg/kg i.p. at 4, 8, 12 h, 24 h, n = 6): 1.58 log10CFU | NGAL, Cystatin C and Kim-1 levels in serum or urine [7]: did not cause noticeable changes | ROS accumulation [8]: ROS elevation was observed only at 2 × MIC and 4 × MIC | organ indices (heart, liver, spleen, lung, kidney) ([9]; 7 days, vs control group): higher than that in the control group | BUN and CREA levels ([9]; 7 days, AMP 1003 20, 30 or 40 mg/kg, polymyxin B 20 mg/kg): comparable to that of control group | hepatotoxicity (ALT, AST) ([9]; 7 days, AMP 1003 all doses, polymyxin B 20 mg/kg): no apparent hepatotoxicity | organ histology (H&E) ([9]; AMP 1003: only at 40 mg/kg): more severe tissue damage | renal tubular injury scores [10]: significantly higher injury scores than normal mice

melittin
MIC [11]: 1 to 16 µM | concentration causing cytotoxicity and hemolysis (mammalian cells): 2000 nM
